The source of these data is patent US6780867B2, “Thienopyrimidines” (Merck Patent GmbH, priority 2000, dated 2004).

Where a name gives a salt, the structure may show the parent alone.

What is called melting point is the temperature, or range, at which the solid turns liquid. The compound `CCOC(=O)CSCc1nc(NCc2ccc(OC)c(Cl)c2)c2c3c(sc2n1)CCCC3` [Example 5, ethyl [4-(3-chloro-4-methoxybenzylamino)-5,6,7,8-tetrahydrobenzo[4,5]thieno-[2,3-d]pyrimidin-2-ylmethylsulfanyl]acetate] showed a melting point of 158 to 160 °C.
`COc1ccc(CNc2nc(COCC(=O)O)nc3sc4c(c23)CCCC4)cc1Cl` (as salt: salt) [Example 6, [4-(3-chloro-4-methoxybenzylamino)-5,6,7,8-tetrahydrobenzo[4,5]thieno-[2,3-d]pyrimidin-2-ylmethoxy]acetic acid] came in with a melting point of 136 to 137 °C.
